Reference: patent publication US9060515B2, “Heterocyclic urea compounds” (BIOTA EUROPE LTD, priority 2011, dated 2015)
In brackets after ≈: the same amount, converted by molar mass.

Experiments:
Type in all cases: cell-based
[1] = tested on: S. aureus (ATCC 29213); assay: Antibacterial susceptibility testing (MIC, broth microdilution or agar dilution), S. aureus; details: Staphylococcus aureus, ATCC29213; read-out: S. aureus (ATCC 29213) minimal inhibitory concentration (MIC)
Summary of the method: (§1)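 MICs by CLSI (M7-A7) broth microdilution or agar dilution, against reference ATCC strains as listed.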

[2] = tested on: S. pyogenes (ATCC 51339); assay: Antibacterial susceptibility testing (MIC, broth microdilution or agar dilution), S. pyogenes; details: Streptococcus pyogenes, ATCC51339; read-out: S. pyogenes (ATCC 51339) minimal inhibitory concentration (MIC)
Summary of the method: as §1

[3] = tested on: H. influenzae (ATCC 49247); assay: Antibacterial susceptibility testing (MIC, broth microdilution or agar dilution), H. influenzae; details: Haemophilus influenzae, ATCC49247; read-out: H. influenzae (ATCC 49247) minimal inhibitory concentration (MIC)
Method: Compounds of the invention were tested for antimicrobial activity by susceptibility testing in liquid or on solid media. MICs for compounds against each strain were determined by the broth microdilution or agar dilution method according to the guidelines of the Clinical Laboratories and Standards Institute, formerly the National Committee for Clinical Laboratory Standards (Clinical Laboratories and Standards Institute. Methods for Dilution Antimicrobial Susceptibility Tests for Bacteria That Grow Aerobically; Approved Standard—Seventh Edition. Document M7-A7. CLSI, Wayne, Pa., 2006; Clinical Laboratories and Standards Institute. The Gram positive bacterial strains tested include S. aureus (Staphylococcus aureus (Isolate ID ATCC 29213)), E. faecalis (Enterococcus faecalis (Isolate ID ATCC 29212)) and S. pyogenes (Streptococcus pyogenes (Isolate ID ATCC 51339)). The Gram negative bacterial strains tested include H. influenzae (Haemophilus influenzae (Isolate ID ATCC 49247)).

[4] = tested on: E. faecalis (ATCC 29212); assay: Antibacterial susceptibility testing (MIC, broth microdilution or agar dilution), E. faecalis; details: Enterococcus faecalis, ATCC29212; read-out: E. faecalis (ATCC 29212) minimal inhibitory concentration (MIC)
Summary of the method: as §1

Row | Structure (SMILES) | MIC [1] | MIC [2] | MIC [3] | MIC [4]
1 | CCNC(=O)Nc1cc(Nc2ccccc2)c(C(=O)Nc2ccc(CC(=O)OCC)cc2)cn1 [Compound 70, ethyl 2-(4-(6-(3-ethylureido)-4-(phenylamino)nicotinamido)phenyl)acetate] | ≤ 1 µg/mL | ≤ 1 µg/mL | 2 µg/mL (≈ 4.33 µM) | –
2 | CCNC(=O)Nc1cc(Nc2ccccc2)c(C(=O)Nc2ccc(CC(=O)O)cc2)cn1 [Compound 71, 2-(4-(6-(3-ethylureido)-4-(phenylamino)nicotinamido)phenyl)acetic acid] | 16 µg/mL (≈ 36.9 µM) | ≤ 1 µg/mL | 2 µg/mL (≈ 4.61 µM) | –
3 | CCNC(=O)Nc1cc(Nc2ccccc2)c(C(=O)Nc2ccc(CCC(=O)OC)cc2)cn1 [Compound 77] | ≤ 1 µg/mL | ≤ 1 µg/mL | 2 µg/mL (≈ 4.33 µM) | –
4 | CCNC(=O)Nc1cc(Nc2ccccc2)c(C(=O)Nc2ccc(CCC(=O)O)cc2)cn1 [Compound 78, 3-[4-[[4-anilino-6-(ethylcarbamoylamino)pyridine-3-carbonyl]amino]phenyl]propanoic acid] | ≤ 1 µg/mL | ≤ 1 µg/mL | 2 µg/mL (≈ 4.47 µM) | –
5 | CCNC(=O)Nc1cc(Nc2ccccc2)c(C(=O)Nc2ccnc(C)c2)cn1 [Compound 90, 6-(3-ethylureido)-N-(2-methylpyridin-4-yl)-4-(phenylamino)nicotinamide] | ≤ 1 µg/mL | ≤ 1 µg/mL | 8 µg/mL (≈ 20.5 µM) | –
6 | CCNC(=O)Nc1cc(Nc2ccccc2)c(C(=O)Nc2cc(C(=O)O)n(C)c2)cn1 [Compound 103, 4-(6-(3-ethylureido)-4-(phenylamino)nicotinamido)-1-methyl-1H-pyrrole-2-carboxylic acid] | 4 µg/mL (≈ 9.47 µM) | ≤ 1 µg/mL | 4 µg/mL (≈ 9.47 µM) | –
7 | CCNC(=O)Nc1cc(Nc2ccccc2)c(C(=O)Nc2ccc(CCC(=O)N(C)OC)cc2)cn1 [Compound 123, 6-(3-Ethylureido)-N-(4-(3-(methoxy(methyl)amino)-3-oxopropyl)phenyl)-4-(phenylamino)nicotinamide] | ≤ 1 µg/mL | ≤ 1 µg/mL | 8 µg/mL (≈ 16.3 µM) | –
8 | CCNC(=O)Nc1cc(Nc2ccccc2)c(C(=O)Nc2ccc(CC(C)(C)C(=O)O)cc2)cn1 [Compound 130, 3-(4-(6-(3-ethylureido)-4-(phenylamino)nicotinamido)phenyl)-2,2-dimethylpropanoic acid] | ≤ 1 µg/mL | ≤ 1 µg/mL | 4 µg/mL (≈ 8.41 µM) | –
9 | CCNC(=O)Nc1cc(Nc2ccnc(OC)c2)c(C(=O)Nc2ccc(CC(C)(C)C(=O)O)cc2)cn1 [Compound 187, 3-{4-[({6-[(ethylcarbamoyl)amino]-4-[(2-methoxypyridin-4-yl)amino]pyridin-3-yl}carbonyl)amino]phenyl}-2,2-dimethylpropanoic acid] | ≤ 1 µg/mL | – | ≤ 1 µg/mL | ≤ 1 µg/mL
10 | CCNC(=O)Nc1cc(Nc2ccccc2)c(C(=O)Nc2ccc(-n3cccc3C(=O)O)cc2)cn1 [Compound 198, 1-{4-[({6-[(ethylcarbamoyl)amino]-4-(phenylamino)pyridin-3-yl}carbonyl)amino]phenyl}-1H-pyrrole-2-carboxylic acid] | 8 µg/mL (≈ 16.5 µM) | – | 4 µg/mL (≈ 8.26 µM) | ≤ 1 µg/mL
11 | CCNC(=O)Nc1cc(Nc2cccc(C#N)c2)c(C(=O)Nc2ccc(CC(C)(C)C(=O)O)cc2)cn1 [Compound 199, 3-{4-[({4-[(3-cyanophenyl)amino]-6-[(ethylcarbamoyl)amino]pyridin-3-yl}carbonyl)amino]phenyl}-2,2-dimethylpropanoic acid] | 2 µg/mL (≈ 4 µM) | – | 2 µg/mL (≈ 4 µM) | ≤ 1 µg/mL
12 | CCNC(=O)Nc1cc(Nc2ccc(C#N)cc2)c(C(=O)Nc2ccc(CN3CCOCC3)cc2)cn1 [Compound 204, 4-[(4-cyanophenyl)amino]-6-[(ethylcarbamoyl)amino]-N-[4-(morpholin-4-ylmethyl)phenyl]pyridine-3-carboxamide] | ≤ 1 µg/mL | – | 4 µg/mL (≈ 8.01 µM) | ≤ 1 µg/mL
13 | CCNC(=O)Nc1cc(Nc2ccccc2)c(C(=O)Nc2ccc(CS(=O)(=O)NC)cc2)cn1 [Compound 210, 6-[(ethylcarbamoyl)amino]-N-{4-[(methylsulfamoyl)methyl]phenyl}-4-(phenylamino)pyridine-3-carboxamide] | 2 µg/mL (≈ 4.14 µM) | – | 4 µg/mL (≈ 8.29 µM) | ≤ 1 µg/mL
14 | CCNC(=O)Nc1cc(Nc2ccc(C)c(F)c2)c(C(=O)Nc2ccc(CCC(=O)O)cc2)cn1 [Compound 222, 3-{4-[({6-[(ethylcarbamoyl)amino]-4-[(3-fluoro-4-methylphenyl)amino]pyridin-3-yl}carbonyl)amino]phenyl}propanoic acid] | ≤ 1 µg/mL | – | ≤ 1 µg/mL | ≤ 1 µg/mL
15 | CCNC(=O)Nc1cc(Nc2ccc(F)c(C)c2)c(C(=O)Nc2ccc(CCC(=O)O)cc2)cn1 [Compound 223, 3-{4-[({6-[(ethylcarbamoyl)amino]-4-[(4-fluoro-3-methylphenyl)amino]pyridin-3-yl}carbonyl)amino]phenyl}propanoic acid] | ≤ 1 µg/mL | – | ≤ 1 µg/mL | ≤ 1 µg/mL
16 | CCNC(=O)Nc1cc(Nc2ccc(F)cc2F)c(C(=O)Nc2ccc(CCC(=O)O)cc2)cn1 [Compound 230, 3-{4-[({4-[(2,4-difluorophenyl)amino]-6-[(ethylcarbamoyl)amino]pyridin-3-yl}carbonyl)amino]phenyl}propanoic acid] | ≤ 1 µg/mL | – | ≤ 1 µg/mL | ≤ 1 µg/mL
17 | CCNC(=O)Nc1cc(Nc2ccccc2)c(C(=O)Nc2ccc(S(N)(=O)=O)cc2)cn1 [Compound 231, 6-[(ethylcarbamoyl)amino]-4-(phenylamino)-N-(4-sulfamoylphenyl)pyridine-3-carboxamide] | 4 µg/mL (≈ 8.8 µM) | – | 4 µg/mL (≈ 8.8 µM) | ≤ 1 µg/mL
18 | CCNC(=O)Nc1cc(Nc2ccccc2)c(C(=O)Nc2ccc(NS(C)(=O)=O)cc2)cn1 [Compound 232, 6-[(ethylcarbamoyl)amino]-N-{4-[(methylsulfonyl)amino]phenyl}-4-(phenylamino)pyridine-3-carboxamide] | 2 µg/mL (≈ 4.27 µM) | – | 4 µg/mL (≈ 8.54 µM) | ≤ 1 µg/mL
19 | CCNC(=O)Nc1cc(Nc2cncc(F)c2)c(C(=O)Nc2ccc(CCC(=O)O)cc2)cn1 [Compound 236] | 4 µg/mL (≈ 8.57 µM) | – | 4 µg/mL (≈ 8.57 µM) | ≤ 1 µg/mL
20 | CCNC(=O)Nc1cc(Nc2cccc(S(F)(F)(F)(F)F)c2)c(C(=O)Nc2ccc(CCC(=O)O)cc2)cn1 [Compound 237, 3-(4-{[(6-[(ethylcarbamoyl)amino]-4-{[3-(pentafluorothio)phenyl]amino}pyridin-3-yl)carbonyl]amino}phenyl)propanoic acid] | ≤ 1 µg/mL | – | 2 µg/mL (≈ 3.49 µM) | ≤ 1 µg/mL
21 | CCNC(=O)Nc1cc(Nc2cc(F)cc(F)c2)c(C(=O)Nc2ccc(C3CC3C(=O)O)cc2)cn1 (stereo not drawn) [Compound 238, 2-{4-[({4-[(3,5-difluorophenyl)amino]-6-[(ethylcarbamoyl)amino]pyridin-3-yl}carbonyl)amino]phenyl}cyclopropanecarboxylic acid] | ≤ 1 µg/mL | – | ≤ 1 µg/mL | ≤ 1 µg/mL
22 | CCNC(=O)Nc1cc(Nc2cc(F)cc(F)c2)c(C(=O)Nc2ccc(CC(C)(C)C(=O)O)cc2)cn1 [Compound 239, 3-{4-[({4-[(3,5-difluorophenyl)amino]-6-[(ethylcarbamoyl)amino]pyridin-3-yl}carbonyl)amino]phenyl}-2,2-dimethyl propanoic acid] | ≤ 1 µg/mL | – | ≤ 1 µg/mL | ≤ 1 µg/mL
